Data reported in the supplement of paper PMC11208160.

Assay: recombinant UMI read abundance after kanamycin selection (control-corrected) (log10(CPM+1)); higher = more efficient recombination; extreme values may be limits of the assay; sequences stand for … in AGTGCAGAGAAAATCGGCCAGTTTTCTCTGCCTGCAGTCCGCATGCCGTGGGACCCCTTGGGTTCTAACCTGTTGCCTAGATTTATGCAGCGGACTGCCTTTCTCCCAAAGTGATAAACCGG…AGGTTGGTTTCACT; site = the 11-nt donor
Outline: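 Two replicates each of selected and unselected plating were used in this pooled Escherichia coli screen of donor and donor-binding-loop pairs for the IS621 bridge recombinase. Selection was with IPTG (0.07 mM) and kanamycin. Counts of recombinant UMIs, amplified across the donor–target junction, were converted to CPM, averaged, scaled by control-derived factors and reported as log10(CPM+1).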
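Also: IS621 bridge recombinase in Escherichia coli cells against a fixed T5 target plasmid.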

| Sequence | recombinant UMI read abundance (log10) |
| --- | --- |
| CGGAATGCATGGACCGGTTTTCCCGGTAATCCGTATTTGTG (site CGGAATCCTAA) | 0 |
| CGGAATGCATGGACCGGTTTTCCCGGTAATCCGTATTTGTG (site CGGAATGCTCA) | 2.58 |
| CGGACTCCATGGACCGGTTTTCCCGGTAATCCGTATTTGTT (site CGGAATCCTAA) | 0.00938 |
| CGGACTCCATGGACCGGTTTTCCCGGTAATCCGTATTTGTT (site CGGACTCCTAA) | 1.58 |
| CGGACTCCATGGACCGGTTTTCCCGGTAATCCGTATTTGTT (site CGGAGTCCTAA) | 0.00177 |
| CGGACTCCATGGACCGGTTTTCCCGGTAATCCGTATTTGTT (site CGGATTCCTAA) | 0.00394 |
| CGGAGATCATGGACCGGTTTTCCCGGTAATCCGTATTTGGT (site CGGAGATCTAC) | 2.19 |
| CGGAGCACATGGACCGGTTTTCCCGGTAATCCGTATTTGAA (site CGGAGCACTTT) | 1.77 |
| CGGAGTCCATGGACCGGTTTTCCCGGTAATCCGTATTTGTT (site CGGAATCCTAA) | 0.767 |
| CGGAGTCCATGGACCGGTTTTCCCGGTAATCCGTATTTGTT (site CGGACTCCTAA) | 0.011 |
| CGGAGTCCATGGACCGGTTTTCCCGGTAATCCGTATTTGTT (site CGGAGTCCTAA) | 0.684 |
| CGGAGTCCATGGACCGGTTTTCCCGGTAATCCGTATTTGTT (site CGGATTCCTAA) | 0 |
| CGGATACCATGGACCGGTTTTCCCGGTAATCCGTATTTGTT (site CGGAATCCTAA) | 0.00671 |
| CGGATACCATGGACCGGTTTTCCCGGTAATCCGTATTTGTT (site CGGATACCTAA) | 0 |
| CGGATTGCATGGACCGGTTTTCCCGGTAATCCGTATTTGCT (site CGGATTGCTAG) | 1.79 |
| CGGCAGACATGGACCGGTTTTCCCGGTAATCCGTATTTGGT (site CGGCAGACTAC) | 1.9 |
| CGGCCCTCATGGACCGGTTTTCCCGGTAATCCGTATTTGCA (site CGGCCCTCTTG) | 3.02 |
| CGGCGGACATGGACCGGTTTTCCCGGTAATCCGTATTTGTG (site CGGCGGACTCA) | 1.64 |
| CGGCGTTCATGGACCGGTTTTCCCGGTAATCCGTATTTGAC (site CGGCGTTCTGT) | 1.69 |
| CGGCTGCCATGGACCGGTTTTCCCGGTAATCCGTATTTGTT (site CGGCTGCCTAA) | 0.0892 |
| CGGCTTACATGGACCGGTTTTCCCGGTAATCCGTATTTGTC (site CGGCTTACTGA) | 1.65 |
| CGGGAACCATGGACCGGTTTTCCCGGTAATCCGTATTTGAC (site CGGGAACCTAT) | 0 |
| CGGGAACCATGGACCGGTTTTCCCGGTAATCCGTATTTGAC (site CGGGAACCTCT) | 0 |
| CGGGAACCATGGACCGGTTTTCCCGGTAATCCGTATTTGAC (site CGGGAACCTGT) | 0 |
| CGGGAACCATGGACCGGTTTTCCCGGTAATCCGTATTTGAC (site CGGGAACCTTT) | 0.0135 |

| Sequence | recombinant UMI read abundance (log10) |
| --- | --- |
| CGGGAATCATGGACCGGTTTTCCCGGTAATCCGTATTTGAT (site CGGGAAACTAT) | 1.23 |
| CGGGAATCATGGACCGGTTTTCCCGGTAATCCGTATTTGAT (site CGGGAACCTAT) | 0 |
| CGGGAATCATGGACCGGTTTTCCCGGTAATCCGTATTTGAT (site CGGGAAGCTAT) | 0.284 |
| CGGGAATCATGGACCGGTTTTCCCGGTAATCCGTATTTGAT (site CGGGAATCTAT) | 2.01 |
| CGGGACACATGGACCGGTTTTCCCGGTAATCCGTATTTGTC (site CGGGACACTGA) | 3.03 |
| CGGGAGCCATGGACCGGTTTTCCCGGTAATCCGTATTTGCC (site CGGGAGACTGG) | 0.0249 |
| CGGGAGCCATGGACCGGTTTTCCCGGTAATCCGTATTTGCC (site CGGGAGCCTGG) | 0 |
| CGGGAGCCATGGACCGGTTTTCCCGGTAATCCGTATTTGCC (site CGGGAGGCTGG) | 0.991 |
| CGGGAGCCATGGACCGGTTTTCCCGGTAATCCGTATTTGCC (site CGGGAGTCTGG) | 1 |
| CGGGAGTCATGGACCGGTTTTCCCGGTAATCCGTATTTGCC (site AGGGAGTCTGG) | 0 |
| CGGGAGTCATGGACCGGTTTTCCCGGTAATCCGTATTTGCC (site CAGGAGTCTGG) | 2.51 |
| CGGGAGTCATGGACCGGTTTTCCCGGTAATCCGTATTTGCC (site CCGGAGTCTGG) | 0 |
| CGGGAGTCATGGACCGGTTTTCCCGGTAATCCGTATTTGCC (site CGAGAGTCTGG) | 2.48 |
| CGGGAGTCATGGACCGGTTTTCCCGGTAATCCGTATTTGCC (site CGCGAGTCTGG) | 1.69 |
| CGGGAGTCATGGACCGGTTTTCCCGGTAATCCGTATTTGCC (site CGGAAGTCTGG) | 2.67 |
| CGGGAGTCATGGACCGGTTTTCCCGGTAATCCGTATTTGCC (site CGGCAGTCTGG) | 0 |
| CGGGAGTCATGGACCGGTTTTCCCGGTAATCCGTATTTGCC (site CGGGAATCTGG) | 2.83 |
| CGGGAGTCATGGACCGGTTTTCCCGGTAATCCGTATTTGCC (site CGGGACTCTGG) | 0 |
| CGGGAGTCATGGACCGGTTTTCCCGGTAATCCGTATTTGCC (site CGGGAGACTGG) | 1.54 |
| CGGGAGTCATGGACCGGTTTTCCCGGTAATCCGTATTTGCC (site CGGGAGCCTGG) | 0 |
| CGGGAGTCATGGACCGGTTTTCCCGGTAATCCGTATTTGCC (site CGGGAGGCTGG) | 0.103 |
| CGGGAGTCATGGACCGGTTTTCCCGGTAATCCGTATTTGCC (site CGGGAGTCTAG) | 2.02 |
| CGGGAGTCATGGACCGGTTTTCCCGGTAATCCGTATTTGCC (site CGGGAGTCTCG) | 1.51 |
| CGGGAGTCATGGACCGGTTTTCCCGGTAATCCGTATTTGCC (site CGGGAGTCTGA) | 2.66 |
| CGGGAGTCATGGACCGGTTTTCCCGGTAATCCGTATTTGCC (site CGGGAGTCTGC) | 2.08 |

| Sequence | recombinant UMI read abundance (log10) |
| --- | --- |
| CGGGAGTCATGGACCGGTTTTCCCGGTAATCCGTATTTGCC (site CGGGAGTCTGG) | 1.67 |
| CGGGAGTCATGGACCGGTTTTCCCGGTAATCCGTATTTGCC (site CGGGAGTCTGT) | 1.75 |
| CGGGAGTCATGGACCGGTTTTCCCGGTAATCCGTATTTGCC (site CGGGAGTCTTG) | 2.01 |
| CGGGAGTCATGGACCGGTTTTCCCGGTAATCCGTATTTGCC (site CGGGATTCTGG) | 0 |
| CGGGAGTCATGGACCGGTTTTCCCGGTAATCCGTATTTGCC (site CGGGCGTCTGG) | 0 |
| CGGGAGTCATGGACCGGTTTTCCCGGTAATCCGTATTTGCC (site CGGGGGTCTGG) | 1.3 |
| CGGGAGTCATGGACCGGTTTTCCCGGTAATCCGTATTTGCC (site CGGGTGTCTGG) | 0 |
| CGGGAGTCATGGACCGGTTTTCCCGGTAATCCGTATTTGCC (site CGGTAGTCTGG) | 0.878 |
| CGGGAGTCATGGACCGGTTTTCCCGGTAATCCGTATTTGCC (site CGTGAGTCTGG) | 0.895 |
| CGGGAGTCATGGACCGGTTTTCCCGGTAATCCGTATTTGCC (site CTGGAGTCTGG) | 2.06 |
| CGGGAGTCATGGACCGGTTTTCCCGGTAATCCGTATTTGCC (site GGGGAGTCTGG) | 0 |
| CGGGAGTCATGGACCGGTTTTCCCGGTAATCCGTATTTGCC (site TGGGAGTCTGG) | 0 |
| CGGGATCCATGGACCGGTTTTCCCGGTAATCCGTATTTGAT (site CGGGAACCTAT) | 0.0108 |
| CGGGATCCATGGACCGGTTTTCCCGGTAATCCGTATTTGAT (site CGGGACCCTAT) | 0.492 |
| CGGGATCCATGGACCGGTTTTCCCGGTAATCCGTATTTGAT (site CGGGAGCCTAT) | 0.0289 |
| CGGGATCCATGGACCGGTTTTCCCGGTAATCCGTATTTGAT (site CGGGATCCTAT) | 0.898 |
| CGGGATCCATGGACCGGTTTTCCCGGTAATCCGTATTTGTT (site CGGAATCCTAA) | 0.736 |
| CGGGATCCATGGACCGGTTTTCCCGGTAATCCGTATTTGTT (site CGGCATCCTAA) | 0.02 |
| CGGGATCCATGGACCGGTTTTCCCGGTAATCCGTATTTGTT (site CGGGATCCTAA) | 0.85 |
| CGGGATCCATGGACCGGTTTTCCCGGTAATCCGTATTTGTT (site CGGTATCCTAA) | 0.243 |
| CGGGCACCATGGACCGGTTTTCCCGGTAATCCGTATTTGAT (site CGGGAACCTAT) | 0 |
| CGGGCACCATGGACCGGTTTTCCCGGTAATCCGTATTTGAT (site CGGGCACCTAT) | 0 |
| CGGGCACCATGGACCGGTTTTCCCGGTAATCCGTATTTGAT (site CGGGGACCTAT) | 0.0117 |
| CGGGCACCATGGACCGGTTTTCCCGGTAATCCGTATTTGAT (site CGGGTACCTAT) | 0 |
| CGGGCATCATGGACCGGTTTTCCCGGTAATCCGTATTTGCT (site CGATCATCTAG) | 0 |
